From patent publication US20040005537A1, “Method of identifying toxic agents using differential gene expression” (priority 2000, published 2004)

Columns and labels:
[1] = cited from earlier work
rat heart tissue = test: GENECALLING differential gene expression analysis after dosing of serotonin modulating agents; assay type: in vivo, Sprague Dawley rats
Protocol: Control animals received sterile water or canola oil. The animals were sacrificed 24 hours following the last dose. Liver tissue was dissected from the animals, and total RNA was recovered from the dissected tissue. cDNA was prepared and the resulting samples were processed through using GENECALLING™ differential expression analysis as described in U.S. Pat. No. 5,871,697 and in Shimkets et al., Nature Biotechnology 17:798-803 (1999). The contents of these patents and publications are incorporated herein by reference in their entirety.
Thousands of gene fragments were initially found to be differentially expressed in rat heart tissue in response to serotonin modulating agents in. Genes fragments whose expression levels were modulated greater than ±1.5-fold were selected for further analysis.
Column 6 of Table 1, entitled “Function”, lists the type of classification assigned for the protein, based on its function. The 210 single nucleic acid sequences identified herein, are referred to herein as CARDIOTOX 1-210.

SMILES: CCNC(C)Cc1cccc(C(F)(F)F)c1 (stereo not shown) [fenfluramine]
- classification as cardiotoxic or noncardiotoxic serotonin modulating agent ([1]; grouping used to generate the distinguishing gene profiles): cardiotoxic
- side effect reported in a subset of patients ([1]; patients to which they are administered): valvular heart disease
- Effects on Transcription Level: Novel gene fragment, 524 bp, 86% SI to mouse F-box protein FBX6b [AF176526] (rat heart tissue; CARDIOTOX 1): +1.4 fold
- Effects on Transcription Level: Novel gene fragment, 306 bp, 91% SI to mouse low density lipoprotein receptor related protein 4 [AB013874] (rat heart tissue; CARDIOTOX 2): −1.1 fold
- Effects on Transcription Level: Novel gene fragment, 540 bp, 97% SI to mouse skeletal muscle alpha-actin [X03766] (rat heart tissue; CARDIOTOX 3): +1.3 fold
- Effects on Transcription Level: Novel gene fragment, 80 bp (rat heart tissue; CARDIOTOX 4): −1.1 fold
- Effects on Transcription Level: Novel gene fragment, 957 bp, 99% SI to kidney injury associated moleculer HW036 [V80591] (rat heart tissue; CARDIOTOX 5): −1.4 fold
- Effects on Transcription Level: Novel gene fragment, 282 bp, 85% SI to human KIAA1515 protein [AB040948] (rat heart tissue; CARDIOTOX 6): −1.3 fold
- Effects on Transcription Level: Novel gene fragment, 405 bp, 88% SI to human 2-oxoglutarate dehydrogenase [D10523] (rat heart tissue; CARDIOTOX 7): +1.4 fold
- Effects on Transcription Level: UCP2 (rat heart tissue; CARDIOTOX 8, GenBank AB010743): −1.3 fold
- Effects on Transcription Level: Plasma membrane Ca2 + ATPase-isoform 1 (rat heart tissue; CARDIOTOX 9, GenBank J03753): −1.3 fold
- Effects on Transcription Level: Novel gene fragment, 242 bp, 97% SI to mouse HSP86 heat-shock protein [X16857] (rat heart tissue; CARDIOTOX 10): +1.6 fold
- Effects on Transcription Level: Novel gene fragment, 280 bp, 65% SI to human TRF1-interacting, ankyrin-related ADP-ribose polymerase [AF082556] (rat heart tissue; CARDIOTOX 11): +1.6 fold
- Effects on Transcription Level: Novel gene fragment, 348 bp, 88% SI to mouse Sec61 protein complex gamma subunit [U11027] (rat heart tissue; CARDIOTOX 12): +1.6 fold
- Effects on Transcription Level: Novel gene fragment 553 bp, 93% SI to mouse Sid329 [AB024984] (rat heart tissue; CARDIOTOX 13): +1.5 fold
- Effects on Transcription Level: Kruppel-like transcription factor (rat heart tissue; CARDIOTOX 14, GenBank AB020759): +1.7 fold
- Effects on Transcription Level: Ribosomal protein L3 (rat heart tissue; CARDIOTOX 15, GenBank X62166): +2.3 fold
- Effects on Transcription Level: Glucose-regulated protein (GRP) 75 (rat heart tissue; CARDIOTOX 16, GenBank S78556): +1.5 fold
- Effects on Transcription Level: Immunoglobulin heavy chain binding protein (BiP) (rat heart tissue; CARDIOTOX 17, GenBank M14050): +2.0 fold
- Effects on Transcription Level: Membrane-spannining proteoglycan NG2 (rat heart tissue; CARDIOTOX 18, GenBank X56541): −1.5 fold
- Effects on Transcription Level: Novel gene fragment, 1294 bp, 96% SI to mouse Sui 1 (elF) homolog [AF129888] (rat heart tissue; CARDIOTOX 19): +1.6 fold
- Effects on Transcription Level: Novel gene fragment, 723 bp, 85% SI to human translation initiation factor elF3 p40 subunit [U54559] (rat heart tissue; CARDIOTOX 20): +1.5 fold
- Effects on Transcription Level: Novel gene fragment, 1324 bp, 76% SI to human flavoprotein subunit of complex II [D30648] (rat heart tissue; CARDIOTOX 21): +1.5 fold
- Effects on Transcription Level: Novel gene fragment, 852 bp, 81% SI to human vacuolar proton-ATPase subunit M9.2 [Y15286] (rat heart tissue; CARDIOTOX 22): +1.6 fold
- Effects on Transcription Level: Novel gene fragment, 178 bp, 91% SI to mouse myosin light chain-2 isoform MLC-2a [S70785] (rat heart tissue; CARDIOTOX 23): +1.5 fold
- Effects on Transcription Level: Novel gene fragment, 167 bp, 90% SI to mouse Rab20 [X80332] (rat heart tissue; CARDIOTOX 24): +1.8 fold
- Effects on Transcription Level: Novel gene fragment, 1070 bp, 80% SI to human muscle-specific protein [AF249873] (rat heart tissue; CARDIOTOX 25): +1.7 fold
- Effects on Transcription Level: Novel gene fragment, 1143 bp, 82% SI to human sarcoma amplified sequence (SAS) [U01160] (rat heart tissue; CARDIOTOX 26): +1.8 fold
- Effects on Transcription Level: Novel gene fragment, 74 bp,75% SI to human secreted protein [X30160] (from patent database)/[X97578] (from patent database)/potential cytokine) (rat heart tissue; CARDIOTOX 27): +1.6 fold
- Effects on Transcription Level: Novel gene fragment, 408 bp, 90% SI to human CGI-07 protein [AF132941] (rat heart tissue; CARDIOTOX 28): +1.6 fold
- Effects on Transcription Level: Novel gene fragment, 618 bp, 95% SI to rat progression related cDNA, ZNPE-120 3′ end partial sequence [patent database X90805] (rat heart tissue; CARDIOTOX 29): +1.6 fold
- Effects on Transcription Level: Novel gene fragment, 717 bp (rat heart tissue; CARDIOTOX 30): +1.6 fold
- Effects on Transcription Level: Novel gene fragment, 546 bp (rat heart tissue; CARDIOTOX 31): +1.5 fold
- Effects on Transcription Level: Novel gene fragment, 920 bp, 91% SI to human HSPC061 [AF161546] (rat heart tissue; CARDIOTOX 32): +1.5 fold
- Effects on Transcription Level: Novel gene fragment, 203 bp, 92% SI to rabbit sarcoplasmic reticulum glycoprotein [J04480] (rat heart tissue; CARDIOTOX 33): −1.7 fold
- Effects on Transcription Level: Novel gene fragment, 178 bp, 68% SI to mouse IgG receptor (beta-Fc-gamma-RII)[M63159] (rat heart tissue; CARDIOTOX 34): +1.5 fold
- Effects on Transcription Level: Ribosomal protein L6 (rat heart tissue; CARDIOTOX 35, GenBank X87107): +1.5 fold
- Effects on Transcription Level: CAP2 protein (adenylyl cyclase-associated protein 2) (rat heart tissue; CARDIOTOX 36, GenBank U31935): +2.0 fold
- Effects on Transcription Level: Alpha-platelet-derived growth factor receptor (rat heart tissue; CARDIOTOX 37, GenBank M63837): +1.5 fold
- Effects on Transcription Level: Rab GD1 alpha protein (rat heart tissue; CARDIOTOX 38, GenBank X74402): −1.5 fold
- Effects on Transcription Level: PKC-zeta-interacting protein (rat heart tissue; CARDIOTOX 39, GenBank Y08355): +1.5 fold
- Effects on Transcription Level: ERK or MAP kinase (rat heart tissue; CARDIOTOX 40, GenBank X65198): +1.5 fold
- Effects on Transcription Level: Peroxisomal multifunctional enzyme type II (rat heart tissue; CARDIOTOX 41, GenBank U37486): +1.5 fold
- Effects on Transcription Level: HBP23 (heme-binding protein 23 kDa) (rat heart tissue; CARDIOTOX 42, GenBank D30035): +1.6 fold
- Effects on Transcription Level: Caveolae-associated protein (rat heart tissue; CARDIOTOX 43, GenBank U90725): +1.5 fold
- Effects on Transcription Level: Prenylated rab acceptor 1 (PRA1) (rat heart tissue; CARDIOTOX 44, GenBank AF025506): +1.6 fold
- Effects on Transcription Level: Novel gene fragment, 337 bp, 88% SI to rabbit cardiac ryanodine receptor (RyR-2)[U50465] (rat heart tissue; CARDIOTOX 45): −1.6 fold
- Effects on Transcription Level: Novel gene fragment, 81 bp, 85% SI to human titin [X90568] (rat heart tissue; CARDIOTOX 46): −1.8 fold
- Effects on Transcription Level: Novel gene fragment, 428 bp, 86% SI to human titin [X90568] (rat heart tissue; CARDIOTOX 47): −1.8 fold
- Effects on Transcription Level: Novel gene fragment, 374 bp, 88% SI to human titin [X90568] (rat heart tissue; CARDIOTOX 48): −1.8 fold
- Effects on Transcription Level: Novel gene fragment, 428 bp, 85% SI to human titin [90568] (rat heart tissue; CARDIOTOX 49): −1.9 fold
- Effects on Transcription Level: Novel gene fragment, 1216 bp, 93% SI to mouse mircotubule-associated protein (MAP) 1B protein [AF115776] (rat heart tissue; CARDIOTOX 50): −1.7 fold
- Effects on Transcription Level: Novel gene fragment, 1115 bp, 83% SI to human KIAA0549 protein [AB011121] (rat heart tissue; CARDIOTOX 51): −1.8 fold
- Effects on Transcription Level: Novel gene fragment, 153 bp (rat heart tissue; CARDIOTOX 52): −1.7 fold
- Effects on Transcription Level: Novel gene fragment, 89 bp, 93% SI to human putative glialblastoma cell differentiation-related protein (GBDR1) [AF068195] (rat heart tissue; CARDIOTOX 53): −1.6 fold
- Effects on Transcription Level: Rho-associated kinase beta (rat heart tissue; CARDIOTOX 54, GenBank U61266): −1.8 fold
- Effects on Transcription Level: Adenylate kinase 3 (rat heart tissue; CARDIOTOX 55, GenBank D13062): +1.6 fold
- Effects on Transcription Level: Amyloid beta-peptide binding protein (rat heart tissue; CARDIOTOX 56, GenBank AF049878): +1.6 fold
- Effects on Transcription Level: Mitochondrial adenine nuleotide translocator (rat heart tissue; CARDIOTOX 57, GenBank D12771): +1.6 fold
- Effects on Transcription Level: Novel gene fragment, 710 bp, 94% SI to mouse chromatin structural protein homolog Supt5 hp (Supt5 h)[U88539] (rat heart tissue; CARDIOTOX 58): +3.4 fold
- Effects on Transcription Level: Novel gene fragment, 186 bp, 66% SI to human N-acetylglucosaminyltransferase 1 (GlcNAc-TI)[M55621] (rat heart tissue; CARDIOTOX 60): −3.0 fold
- Effects on Transcription Level: Novel gene fragment, 238 bp, 95% SI to mouse MAP kinase-activated protein kinase 2 [X76850] (rat heart tissue; CARDIOTOX 61): −2.4 fold
- Effects on Transcription Level: Novel gene fragment, 173 bp, 70% SI to G protein-coupled receptor kinase GRK4 [X97568] (rat heart tissue; CARDIOTOX 62): −6.6 fold
- Effects on Transcription Level: Novel gene fragment, 133 bp, 77% SI to human apoptosis related protein hSARP3 [patent database: V19114] (rat heart tissue; CARDIOTOX 63): −3.1 fold
- Effects on Transcription Level: Novel gene fragment, 477 bp, 98% SI to peroxisomal phytanoyl-CoA hydroxylase (PHYH) [AF121345] (rat heart tissue; CARDIOTOX 64): +4.8 fold
- Effects on Transcription Level: Novel gene fragment, 413 bp, 95% SI to mouse dihydrolipoamide dehydrogenase (Dld) [U73445] (rat heart tissue; CARDIOTOX 65): +2.3 fold
- Effects on Transcription Level: Novel gene fragment, 726 bp, 76% SI to human succinate dehydrogenase flavoprotein subunit (SDH) [L21936] (rat heart tissue; CARDIOTOX 66): −4.0 fold
- Effects on Transcription Level: Novel gene fragment, 440 bp, 92% SI to mouse cytochrome c oxidase Vllc [X52940] (rat heart tissue; CARDIOTOX 67): +4.0 fold
- Effects on Transcription Level: Novel gene fragment, 276 bp, 80% SI to human titin [X90568] (rat heart tissue; CARDIOTOX 68): −12.7 fold
- Effects on Transcription Level: Novel gene fragment, 149 bp, 70% SI to human titin [X90568] (rat heart tissue; CARDIOTOX 69): −5.6 fold
